Experimental findings from the SangsterLogP compilation are described below.

`Clc1cc(-c2c(Cl)cccc2Cl)c(Cl)c(Cl)c1Cl`: the logP (in general, a log measure of how a compound divides between an organic and an aqueous phase) was 6.5.

In the case of `Clc1cc(Cl)c(-c2c(Cl)cccc2Cl)c(Cl)c1Cl`, the log partition coefficient (logP) is 6.28.

In turn, `Clc1cc(Cl)c(-c2cc(Cl)c(Cl)cc2Cl)c(Cl)c1` had a lipophilicity (logP) of 6.46.

Molecule `Clc1cc(Cl)c(Cl)c(-c2cc(Cl)cc(Cl)c2Cl)c1` yielded a logP of 6.63.

As for `Clc1ccc(-c2c(Cl)c(Cl)cc(Cl)c2Cl)c(Cl)c1`, the logP was 6.52.

The molecule `Clc1cc(Cl)c(Cl)c(-c2cc(Cl)c(Cl)cc2Cl)c1` gave a logP of 6.71.

With `Clc1ccc(-c2c(Cl)c(Cl)c(Cl)c(Cl)c2Cl)cc1`, the logP amounted to 6.87.

Turning to `Clc1ccc(Cl)c(-c2c(Cl)ccc(Cl)c2Cl)c1Cl`, the logP worked out at 6.27.

`Clc1cc(Cl)c(Cl)c(-c2c(Cl)cccc2Cl)c1Cl` returned a lipophilicity (logP) of 6.1. This logP and that of the molecule before are within 0.2 log units of each other.

The molecule `Clc1cc(Cl)c(-c2cc(Cl)cc(Cl)c2Cl)c(Cl)c1` displayed a logP of 6.45.

On to `Clc1ccccc1-c1c(Cl)c(Cl)c(Cl)c(Cl)c1Cl`, for which the lipophilicity (logP) is 6.49.

`Clc1cc(Cl)cc(-c2c(Cl)c(Cl)cc(Cl)c2Cl)c1` had a log partition coefficient (logP) of 6.68.

As to `Clc1cccc(-c2c(Cl)c(Cl)cc(Cl)c2Cl)c1Cl`, the log partition coefficient (logP) came out at 6.42.

On to `Clc1cc(Cl)cc(-c2cc(Cl)c(Cl)c(Cl)c2Cl)c1`, for which the logP was 7.01.

On to `Clc1cc(Cl)c(Cl)c(-c2c(Cl)ccc(Cl)c2Cl)c1`, for which the logP was 6.41.

As for `Clc1cc(Cl)c(-c2c(Cl)ccc(Cl)c2Cl)c(Cl)c1`, the logP came to 6.31.

In turn, `Clc1cccc(-c2c(Cl)cc(Cl)c(Cl)c2Cl)c1Cl` showed a logP of 6.43.

`Clc1cc(Cl)c(Cl)c(-c2ccc(Cl)c(Cl)c2Cl)c1` gave a logP of 6.79.

`Clc1ccc(-c2c(Cl)ccc(Cl)c2Cl)c(Cl)c1Cl`: the lipophilicity (logP) was determined as 6.61.

`Clc1cc(Cl)c(-c2c(Cl)ccc(Cl)c2Cl)cc1Cl`: the logP amounted to 6.46.

`Clc1ccc(-c2cc(Cl)c(Cl)c(Cl)c2Cl)c(Cl)c1`: the log partition coefficient (logP) was 6.8.

Regarding `Clc1cc(Cl)cc(-c2c(Cl)cc(Cl)c(Cl)c2Cl)c1`, the log partition coefficient (logP) was found to be 6.68.

The molecule `Clc1cccc(-c2c(Cl)c(Cl)c(Cl)c(Cl)c2Cl)c1` came in with a logP of 6.84.

In turn, `Clc1cc(Cl)c(-c2cc(Cl)c(Cl)c(Cl)c2)c(Cl)c1` yielded a logP of 6.74.

Molecule `Clc1cc(Cl)c(Cl)c(-c2cc(Cl)c(Cl)c(Cl)c2)c1` had a logP of 7.02.
